IC50 and IC90 data for 26 compounds are collected here from ChEMBL document CHEMBL4483862, “Open-source discovery of chemical leads for next-generation chemoprotective antimalarials” (2018).

For this experiment, the system named is Plasmodium berghei. The experiment in a line: Luciferase/luciferin-expressing antifolate-resistant parasites were used to infect a culture of HepG2 cells that were pre-incubated with compounds. Infected hepatocytes emit light due to the luciferase reaction. Assay results are presented as the percent inhibition of light emission compared to control. […]. It is filed as functional. Conditions: sporozoite; for IC90: read-out: LUCIFERASE INFECTION ASSAY - IC90.

Where [1] appears, read: read-out: LUCIFERASE INFECTION ASSAY - IC50.

The term IC50 denotes the midpoint of a concentration-inhibition curve. For orientation: IC90 means the concentration needed for an effect of 90%. Turning to `Cc1cccc(NC(=O)N2CCC3(CC2)OCc2cc(-c4ccc(OC(F)(F)F)cc4)ccc2O3)c1`, the IC90 is more than 6.62 µM. Under setting [1], the IC50 was more than 6.62 µM.
Consider `O=[N+]([O-])c1ccc(NC2C=CS(=O)(=O)C2)c(Cl)c1` (configuration not stated), for which the IC90 is more than 10 µM. The IC50 (HEPG2TOX_HILL_SLOPE 13.7, HEPG2TOX_R_SQUARED 0.786, read-out: LUCIFERASE INFECTION ASSAY - IC50) is more than 10 µM.
For the compound `O=C(Cn1ncc(Cl)c(Cl)c1=O)N1CCN(S(=O)(=O)c2ccc3ccccc3c2)CC1`, the IC90 was more than 10 µM. Moreover, under “HEPG2TOX_HILL_SLOPE 11.9, 3.77, HEPG2TOX_R_SQUARED 0.663, 0.998, PBLUC_HILL_SLOPE 2.89, PBLUC_R_SQUARED 0.527, read-out: LUCIFERASE INFECTION ASSAY - IC50”, the IC50 is 5.1 µM.
Turning to `CN(/N=C/c1cc(Cl)cc(Cl)c1O)C(=S)NC(C)(C)C`, the IC90 was more than 9.87 µM. Also, the IC50 under setting [1] is more than 9.87 µM.
Consider `COc1ccc(N2C(=O)c3ccccc3C(C=NNC(=O)c3sc4ccccc4c3Cl)C2=O)cc1OC` (configuration not stated), for which the IC90 was more than 10 µM. For the same compound, the half-maximal inhibitory concentration (IC50) (PBLUC_HILL_SLOPE 1.6, PBLUC_R_SQUARED 0.564, read-out: LUCIFERASE INFECTION ASSAY - IC50) was 3.85 µM.
On to `OCCNCc1cc(Br)ccc1OCc1ccc(F)cc1`, for which the IC90 is 3.12 µM. Besides, the IC50 (PBLUC_HILL_SLOPE 16.8, PBLUC_R_SQUARED 0.362, read-out: LUCIFERASE INFECTION ASSAY - IC50) was 2.74 µM.
Take `O=C1C(=O)N(Cc2cccc(Cl)c2)c2c1cccc2C(F)(F)F`: the IC90 amounted to 6.09 µM. Further, under “HEPG2TOX_HILL_SLOPE 13.2, HEPG2TOX_R_SQUARED 0.969, PBLUC_HILL_SLOPE 2.5, PBLUC_R_SQUARED 0.616, read-out: LUCIFERASE INFECTION ASSAY - IC50”, the concentration for half-maximal inhibition (IC50) turned out to be 2.53 µM.
For the compound `NC(Cc1ccc(F)cc1)c1csc(NC(=O)Nc2ccc(OC(F)(F)F)cc2)n1` (configuration not stated), the concentration for an effect of 90% (IC90) stood at 5.69 µM. Also, the IC50 (HEPG2TOX_HILL_SLOPE 9.82, HEPG2TOX_R_SQUARED 0.883, PBLUC_HILL_SLOPE 24.7, PBLUC_R_SQUARED 0.388, read-out: LUCIFERASE INFECTION ASSAY - IC50) was found to be 5.2 µM.
For `Cc1ccc(NC(=O)Cn2ccccc2=O)cc1S(=O)(=O)N1CCCCC1`, the concentration for an effect of 90% (IC90) is more than 10 µM. Also, the IC50 (PBLUC_HILL_SLOPE 1.99, PBLUC_R_SQUARED 0.304, read-out: LUCIFERASE INFECTION ASSAY - IC50) was 5.37 µM.
Regarding `Cc1ccc(SCc2cc(=O)n3nc(C)c(-c4ccccc4)c3[nH]2)cc1`, the concentration for an effect of 90% (IC90) was more than 9.13 µM. In addition, where the note is “PBLUC_HILL_SLOPE 11, PBLUC_R_SQUARED 0.259, read-out: LUCIFERASE INFECTION ASSAY - IC50”, the IC50 came to 7.6 µM.
As for `CC1CCc2sc(C(=O)N/N=C/c3sc(N4CCCCC4)nc3-c3cccs3)cc2C1` (configuration not stated), the concentration for an effect of 90% (IC90) amounted to 5.03 µM. In addition, the IC50 (FFLUC_HILL_SLOPE 3.43, FFLUC_R_SQUARED 0.712, HEPG2TOX_HILL_SLOPE 2.9, HEPG2TOX_R_SQUARED 0.728, PBLUC_HILL_SLOPE 3.74, PBLUC_R_SQUARED 0.491, read-out: LUCIFERASE INFECTION ASSAY - IC50) stood at 2.79 µM.
As for `CC(C)(C)c1ccccc1N1C(=O)C=CC1=O`, the IC90 amounted to 6.59 µM. Besides, for the setting “HEPG2TOX_HILL_SLOPE 10.3, HEPG2TOX_R_SQUARED 0.72, PBLUC_HILL_SLOPE 8.87, PBLUC_R_SQUARED 0.496, read-out: LUCIFERASE INFECTION ASSAY - IC50”, the IC50 was 5.14 µM.
In the case of `COc1ccc2c(c1)CCCN2C(=O)c1occc1C`, the IC90 amounted to 1.23 µM. Also, the IC50 (HEPG2TOX_HILL_SLOPE 0.966, HEPG2TOX_R_SQUARED 0.937, PBLUC_HILL_SLOPE 15.5, PBLUC_R_SQUARED 0.354, read-out: LUCIFERASE INFECTION ASSAY - IC50) is 1.07 µM.
Consider `CCC(C)(C)NS(=O)(=O)c1ccc(-n2ncc(Cl)c(Cl)c2=O)cc1`, for which the concentration for an effect of 90% (IC90) came out at 1.45 µM. In addition, under “HEPG2TOX_HILL_SLOPE 13.4, HEPG2TOX_R_SQUARED 0.912, PBLUC_HILL_SLOPE 13.3, PBLUC_R_SQUARED 0.601, read-out: LUCIFERASE INFECTION ASSAY - IC50”, the half-maximal inhibitory concentration (IC50) is 1.23 µM.
As to `COc1ccccc1NC(=O)C(=Cc1ccc(N2CCCC2)c([N+](=O)[O-])c1)C(=O)Nc1ccccc1OC`, the IC90 is more than 10 µM. Moreover, the concentration for half-maximal inhibition (IC50) under setting [1] is more than 10 µM.
In the case of `Cc1cnc(NC(=O)c2ccc3nccnc3c2)s1`, the IC90 was more than 10 µM. Also, the IC50 (HEPG2TOX_HILL_SLOPE 19.6, HEPG2TOX_R_SQUARED 0.459, read-out: LUCIFERASE INFECTION ASSAY - IC50) is more than 10 µM.
As for `COc1ccc(/C=C/C(=O)c2cc(Cl)c(OC)cc2OC)cc1O`, the 90% effect concentration (IC90) was found to be 1.26 µM. The IC50 (HEPG2TOX_HILL_SLOPE 1.17, HEPG2TOX_R_SQUARED 0.559, PBLUC_HILL_SLOPE 18.3, PBLUC_R_SQUARED 0.538, read-out: LUCIFERASE INFECTION ASSAY - IC50) was determined as 1.12 µM.
On to `Cc1cc(=O)n2nc(C(F)(F)F)n(CC(=O)Nc3ccc(Sc4ccc(C)c(C)c4)cc3)c2c1`, for which the concentration for an effect of 90% (IC90) was more than 10 µM. Further, the half-maximal inhibitory concentration (IC50) under setting [1] was more than 10 µM.
Consider `Nc1ccc(-c2cnc3ccc(NCc4ccc(F)cc4)nn23)cc1`, for which the IC90 stood at 0.372 µM. The IC50 (HEPG2TOX_HILL_SLOPE 3.34, HEPG2TOX_R_SQUARED 0.665, PBLUC_HILL_SLOPE 6.16, PBLUC_R_SQUARED 0.867, read-out: LUCIFERASE INFECTION ASSAY - IC50) is 0.26 µM.
As to `COc1cc(C(=O)N/N=C(\Cc2ncc[nH]2)c2ccccc2)cc(OC)c1OC`, the IC90 is more than 10 µM. Also, for the setting “HEPG2TOX_HILL_SLOPE 12.3, 3.85, HEPG2TOX_R_SQUARED 0.0839, 0.975, PBLUC_HILL_SLOPE 2.96, PBLUC_R_SQUARED 0.327, read-out: LUCIFERASE INFECTION ASSAY - IC50”, the 50% inhibitory concentration (IC50) amounted to 5.09 µM.
As for `CC(=O)NCc1ccc(-c2csc(NC(=O)c3cc4cnn(C(C)C)c4nc3C)n2)s1`, the IC90 is more than 10 µM. In addition, the half-inhibitory concentration (IC50) (HEPG2TOX_HILL_SLOPE 7.15, HEPG2TOX_R_SQUARED 0.462, PBLUC_HILL_SLOPE 31.4, PBLUC_R_SQUARED 0.13, read-out: LUCIFERASE INFECTION ASSAY - IC50) was 9.38 µM.
With `COc1cccc(C(=O)N(c2nc3ccccc3s2)c2c(C)cccc2C)c1`, the IC90 was more than 10 µM. The IC50 (PBLUC_HILL_SLOPE 0.58, PBLUC_R_SQUARED 0.199, read-out: LUCIFERASE INFECTION ASSAY - IC50) was more than 10 µM.
In the case of `FC(F)(F)c1cc(N=C(C/C=N/c2cc(C(F)(F)F)cc(C(F)(F)F)c2)c2ccc(Cl)cc2)cc(C(F)(F)F)c1`, the IC90 stood at 0.673 µM. In addition, the IC50 (FFLUC_HILL_SLOPE 1.3, FFLUC_R_SQUARED 0.132, PBLUC_HILL_SLOPE 15.7, PBLUC_R_SQUARED 0.5, read-out: LUCIFERASE INFECTION ASSAY - IC50) amounted to 0.585 µM.
Consider `COc1cc(-c2cnc3sc(NCC4CCOCC4)nn23)ccc1O`, for which the IC90 was more than 9.16 µM. Moreover, the IC50 under setting [1] was more than 9.16 µM.
Turning to `Cc1c(C(=O)OCC(=O)c2ccc(OC(F)F)cc2)sc2nc3n(c(=O)c12)CCC3`, the IC90 was 9.86 µM. Further, the half-maximal inhibitory concentration (IC50) (PBLUC_HILL_SLOPE 10.3, PBLUC_R_SQUARED 0.714, read-out: LUCIFERASE INFECTION ASSAY - IC50) was 7.97 µM.
As to `Cc1nc(NC(=O)c2cnn(C)c2)sc1Cc1ccccc1Cl`, the IC90 was 3.3 µM. Besides, the concentration for half-maximal inhibition (IC50) (HEPG2TOX_HILL_SLOPE 2.29, HEPG2TOX_R_SQUARED 0.901, PBLUC_HILL_SLOPE 11.8, PBLUC_R_SQUARED 0.668, read-out: LUCIFERASE INFECTION ASSAY - IC50) is 2.74 µM.
